Data: patent US10981902B2 (Merck Sharp & Dohme Corp., priority 2017, dated 2021)

Molecular target: T1, human M4 muscarinic acetylcholine receptor (Homo sapiens, UniProt P08173)
T1 construct: expressed in transfected cells; host or cells: CHO-K1
T1 sequence (P08173 1-479): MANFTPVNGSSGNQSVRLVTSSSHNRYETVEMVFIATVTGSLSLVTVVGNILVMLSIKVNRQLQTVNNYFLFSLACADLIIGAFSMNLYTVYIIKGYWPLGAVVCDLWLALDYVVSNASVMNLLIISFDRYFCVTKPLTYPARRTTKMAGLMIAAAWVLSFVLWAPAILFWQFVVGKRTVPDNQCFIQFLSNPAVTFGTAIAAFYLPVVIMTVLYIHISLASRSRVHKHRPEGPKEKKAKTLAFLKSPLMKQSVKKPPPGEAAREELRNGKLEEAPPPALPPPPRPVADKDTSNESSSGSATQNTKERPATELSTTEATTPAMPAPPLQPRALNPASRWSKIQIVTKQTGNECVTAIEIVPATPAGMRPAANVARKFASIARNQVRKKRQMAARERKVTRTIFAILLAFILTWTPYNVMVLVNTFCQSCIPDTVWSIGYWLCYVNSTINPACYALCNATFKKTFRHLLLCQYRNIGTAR
Test: human FLIPR-based M4 PAM assay (calcium mobilization, CHO-K1 cells with human M4 receptor and Gαqi5)
Type: cell-based
Details: inflection point (IP) of dose response curve, acetylcholine added at 20% of maximum response, read-out: M4 FLIPPR Hu IP
Method: In a typical experiment the M4 muscarinic acetylcholine receptor modulating activity of the compounds of the present invention was determined in accordance with the following experimental method. CHO-K1 cells stably transfected with human M4 receptor and chimeric G-protein Gαqi5 (Coward P, et al., Analytical Biochemistry, 270:242-248 (1999)) are thawed from liquid N2 storage, resuspended in growth medium, plated in black, clear bottom 384 well plates, and incubated 16-20 hours at 37° C., 5% CO2. On the day of assay, growth medium is removed, the cells are washed 2 times with wash buffer, and cells are incubated in dye loading buffer at 37° C., 5% CO2 for ˜1 hour. Following dye loading the cell plates are placed in a FLIPR Tetra instrument and while monitoring dye fluorescence (excitation […]), 10 uL of test substance at increasing concentrations is added, and fluorescence values are recorded for 4 min. Next, 10 uL of acetylcholine is added (final concentration calculated so as to achieve 20% of the maximum acetycholine response), and the fluorescence reading is continued for 3.5 min. In some cases, a third addition of acetylcholine (final concentration calculated to achieve 70% of the maximal acetylcholine response) is performed. The resulting dose response curves are fit to a 4 parameter logistic equation and the final result is determined as the inflection point (IP) of the curve
CHO-K1 cells stably transfected with human M4 receptor and chimeric G-protein Gαqi5 are thawed from liquid N2 storage, resuspended in growth medium, plated in black, clear bottom 384 well plates, and incubated 16-20 hours at 37° C., 5% CO2.
On the day of assay, growth medium is removed, the cells are washed 2 times with wash buffer, and cells are incuabted in dye loading buffer at 37° C., 5% CO2 for ˜1 h. Following dye loading the cell plates are placed in a FLIPR Tetra instrument and while monitoring dye fluorescence ([…]), 10 uL of test substance at increasing concentrations is added, and fluorescence values are recorded for 4 min. Next, 10 uL of acetylcholine is added (final concentration calculated so as to achieve 20% of the maximum acetycholine response), and the fluorescence reading is continued for 3.5 min. In some cases, a third addition of acetylcholine (final concentration calculated to achieve 70% of the maximal acetylcholine response) is performed.

SMILES | EC50
CN1Cc2ccc(-c3nc(C(F)F)ccc3-c3cnc(CC(C)(C)C(F)(F)F)o3)cc2C1=O [Example 26, 6-(6-(difluoromethyl)-3-(2-(3,3,3-trifluoro-2,2-dimethylpropyl)-oxazol-5-yl)pyridin-2-yl)-2-methylisoindolin-1-one] | 63 nM
CC(C)(C)Cc1ncc(-c2ccc3cncn3c2-c2ccn3ccnc3c2)o1 [Example 36, 5-(5-(imidazo[1,2-a]-pyridin-7-yl)imidazo-[1,5-a]pyridin-6-yl)-2-neopentyloxazole] | 75 nM
CN1Cc2ccc(-c3nc4c(cc3-c3cnc(CC5(C)CCCC5)o3)CCC4)cc2C1=O [Example 4, 2-methyl-6-(3-(2-((1-methylcyclopentyl)methyl)oxazol-5-yl)-6,7-dihydro-5H-cyclopenta[b]pyridin-2-yl)isoindolin-1-one] | 30 nM
N#Cc1ccc(-c2cnc(CC3CCCC3)o2)c(-c2cnc3c(c2)C(=O)N(CC2CC2)C3)n1 [Example 51, 5-(2-(cyclopentylmethyl)oxazol-5-yl)-6-(6-(cyclopropylmethyl)-5-oxo-6,7-dihydro-5H-pyrrolo[3,4-b]pyridin-3-yl) picolinonitrile] | 42 nM
CN1Cc2ncc(-c3nc4c(cc3-c3cnc(CC5(C)CCCC5)o3)CCC4)cc2C1=O [Example 17, 6-methyl-3-(3-(2-((1-methylcyclo-pentyl)methyl)-oxazol-5-yl)-6,7-dihydro-5H-cyclo-penta[b]pyridin-2-yl)-6,7-dihydro-5H-pyrrolo[3,4-b]-pyridin-5-one] | 26 nM
CC(C)(Cc1ncc(-c2ccc(C(F)F)nc2-c2ccn3ccnc3c2)o1)C(F)(F)F [Example 25, 5-(6-(difluoromethyl)-2-(imidazo[1,2-a]-pyridin-7-yl)pyridin-3-yl)-2-(3,3,3-trifluoro-2,2-dimethylpropyl)-oxazole] | 35 nM

More lines, now with the values ahead:

EC50 | SMILES
47 nM | Cc1cn2ccc(-c3nc(C#N)ccc3-c3cnc(CCC(C)(C)F)o3)cc2n1 [Example 116, 5-(2-(3-fluoro-3-methylbutyl)oxazol-5-yl)-6-(2-methylimidazo [1,2-a]pyridin-7-yl)picolinonitrile]
41 nM | N#Cc1ccc(-c2cnc(CC(F)C3CC3)o2)c(-c2ccc3cccnc3c2)n1 (centres unmarked) [Example 69, 5-(2-(2-cyclopropyl-2-fluoroethyl)oxazol-5-yl)-6-(quinolin-7-yl)picolinonitrile]
49 nM | N#Cc1ccc(-c2cnc(CC(F)C3CC3)o2)c(-c2ccn3ccnc3c2)n1 (centres unmarked) [Example 85, 5-(2-(2-cyclopropyl-2-fluoroethyl)oxazol-5-yl)-6-(imidazo[1,2-a]pyridin-7-yl) picolinonitrile]
138 nM | CCC(F)(CC)Cc1ncc(-c2ccc(C#N)nc2-c2ccc3cccnc3c2)o1 [Example 74, 5-(2-(2-ethyl-2-fluorobutyl)oxazol-5-yl)-6-(quinolin-7-yl)picolinonitrile]
231 nM | N#Cc1ccc(-c2cnc(CC(O)C3CC3)o2)c(-c2ccc3cccnc3c2)n1 (centres unmarked) [Example 68, 5-(2-(2-cyclopropyl-2-hydroxyethyl)oxazol-5-yl)-6-(quinolin-7-yl)picolinonitrile]
143 nM | Cc1cn2ccc(-c3nc(C#N)ccc3-c3cnc(CCC(O)C(F)(F)F)o3)cc2n1 (centres unmarked) [Example 106, 6-(2-methylimidazo[1,2-a]pyridin-7-yl)-5-(2-(4,4,4-trifluoro-3-hydroxybutyl)oxazol-5-yl)picolinonitrile]
133 nM | Cc1cn2ccc(-c3nc(C#N)ccc3-c3cnc(CCC(F)(F)C(F)(F)F)o3)cc2n1 [Example 108, 6-(2-methylimidazo [1,2-a]pyridin-7-yl)-5-(2-(3,3,4,4,4-pentafluorobutyl)oxazol-5-yl) picolinonitrile]
49 nM | Cc1nc(CC2CCCC2)oc1-c1ccc(C#N)nc1-c1ccc2cccnc2c1 [Example 64, 5-(2-(cyclopentylmethyl)-4-methyloxazol-5-yl)-6-(quinolin-7-yl)picolinonitrile]
